In data set [1] the test system is S. aureus. The settings on record: in vitro, pure ozone; cited from earlier work.
The subject of data set [2] is coxsachie. The settings on record: in vitro, pure ozone; cited from earlier work.
Data set [3] deals with human subjects. The following applies: 0.24 ppm for two hours; cited from earlier work.
Data set [4] deals with mammals. The following applies: overdoses of pure O3; cited from earlier work.
Data set [5] deals with Aeromonas hydrophilia. The following applies: in vitro, pure ozone; cited from earlier work.
Data set [6] has as its system mice. The settings on record: 3 hours of inhalation; cited from earlier work.
Data set [7] deals with coliform. The settings on record: in vitro, pure ozone; cited from earlier work.
For data set [8], the system named is enteroviruses. The following applies: in vitro, pure ozone; cited from earlier work.
The test system of data set [9] is poliovirus 2. The following applies: in vitro, pure ozone; cited from earlier work.
The test system of data set [10] is herpes simplex. The data set can be described thus: remission of herpes lesions in patient (Example 3).

Turning to `O=[O+][O-]` [ozone], the “inactivation of S. aureus” value in data set [1] is “inactivates”. In data set [2], the inactivation of coxsachie entry is given as “inactivates”. Besides, in [3], the cell functions result is on record as “inhibition of certain cell functions”, the enzyme activities result is on record as “wide fluctuations in enzyme activities” and the respiratory capacity entry was “drops in respiratory capacity”. Also, the signs of overdose result in data set [4] is “pulmonary edema and hemorrhaging”. For the same molecule, the “inactivation of Aeromonas hydrophilia” value in data set [5] is listed as “inactivates”. The LD50 in data set [6] is 22 ppm. In addition, the inactivation of coliform entry in data set [7] is reported as “inactivates”. Moreover, the inactivation of enteroviruses result in [8] is listed as “inactivates”. The “inactivation of poliovirus 2” value in data set [9] was “inactivates”.

In the case of `Nc1nc2c(ncn2COCCO)c(=O)[nH]1` [acyclovir], the “herpes lesions during treatment with acyclovir” value in [10] is “had persisted”.

The record behind these values is patent US5133975A, “Method for in vivo inactivation of blood borne HIV virus using a mixture of ozone and oxygen” (RJH and Company, Inc., priority 1989, dated 1992).
